Each block holds one compound with its values, some of them ahead of it.
How the values were obtained:
Settings in all cases: binder
BMX = target: T1, BMX (Homo sapiens, UniProt P51813)
T1 sequence (P51813 1-675): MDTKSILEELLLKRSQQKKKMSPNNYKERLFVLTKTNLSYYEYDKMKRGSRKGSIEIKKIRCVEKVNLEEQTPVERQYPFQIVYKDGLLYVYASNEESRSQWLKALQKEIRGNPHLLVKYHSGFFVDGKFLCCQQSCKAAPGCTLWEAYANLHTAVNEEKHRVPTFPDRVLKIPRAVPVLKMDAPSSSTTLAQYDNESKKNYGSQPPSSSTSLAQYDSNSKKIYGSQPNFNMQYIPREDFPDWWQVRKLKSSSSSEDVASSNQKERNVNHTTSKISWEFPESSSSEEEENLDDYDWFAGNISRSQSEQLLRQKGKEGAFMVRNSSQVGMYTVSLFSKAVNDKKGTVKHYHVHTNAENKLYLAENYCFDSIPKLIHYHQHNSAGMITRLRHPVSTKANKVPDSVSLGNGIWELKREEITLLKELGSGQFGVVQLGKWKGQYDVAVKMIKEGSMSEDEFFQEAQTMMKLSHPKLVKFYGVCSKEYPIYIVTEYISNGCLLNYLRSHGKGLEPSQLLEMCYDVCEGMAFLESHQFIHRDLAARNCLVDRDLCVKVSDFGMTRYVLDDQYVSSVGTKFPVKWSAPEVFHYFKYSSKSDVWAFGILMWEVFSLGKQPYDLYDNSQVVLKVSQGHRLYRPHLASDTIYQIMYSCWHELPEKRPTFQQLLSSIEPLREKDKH

Erk7 = target: T2, Erk7 (Homo sapiens, UniProt Q8TD08)
T2 sequence (Q8TD08 1-544): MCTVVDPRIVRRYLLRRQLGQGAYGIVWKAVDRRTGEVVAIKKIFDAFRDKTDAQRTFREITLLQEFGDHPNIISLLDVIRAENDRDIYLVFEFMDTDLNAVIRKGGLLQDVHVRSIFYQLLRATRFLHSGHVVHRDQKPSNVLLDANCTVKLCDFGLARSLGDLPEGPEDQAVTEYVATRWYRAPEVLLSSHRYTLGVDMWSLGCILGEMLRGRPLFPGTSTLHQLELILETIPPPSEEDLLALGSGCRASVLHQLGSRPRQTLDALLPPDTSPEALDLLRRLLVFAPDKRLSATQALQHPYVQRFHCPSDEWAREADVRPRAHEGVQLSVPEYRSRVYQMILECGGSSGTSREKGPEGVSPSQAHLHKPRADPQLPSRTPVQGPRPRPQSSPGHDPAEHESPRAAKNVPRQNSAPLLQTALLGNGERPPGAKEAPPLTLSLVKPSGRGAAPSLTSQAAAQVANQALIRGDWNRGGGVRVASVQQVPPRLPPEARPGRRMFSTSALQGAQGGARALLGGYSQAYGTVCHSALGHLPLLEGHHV

PHKG2 = target: T3, PHKG2 (Homo sapiens, UniProt P15735)
T3 sequence (P15735 1-406): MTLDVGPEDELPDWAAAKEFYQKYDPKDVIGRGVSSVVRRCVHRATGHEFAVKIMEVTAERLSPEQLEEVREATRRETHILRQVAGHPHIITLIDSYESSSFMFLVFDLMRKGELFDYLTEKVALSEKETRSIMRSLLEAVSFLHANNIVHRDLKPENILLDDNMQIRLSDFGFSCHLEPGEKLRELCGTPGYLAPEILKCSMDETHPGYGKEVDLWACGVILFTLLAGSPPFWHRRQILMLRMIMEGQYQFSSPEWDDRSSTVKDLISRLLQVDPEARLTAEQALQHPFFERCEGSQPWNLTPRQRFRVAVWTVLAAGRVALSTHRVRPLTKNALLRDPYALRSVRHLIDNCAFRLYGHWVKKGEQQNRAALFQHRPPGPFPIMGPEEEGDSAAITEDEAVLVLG

MAP2K7 = target: T4, MAP2K7 (Homo sapiens, UniProt O14733)
T4 sequence (O14733 1-419): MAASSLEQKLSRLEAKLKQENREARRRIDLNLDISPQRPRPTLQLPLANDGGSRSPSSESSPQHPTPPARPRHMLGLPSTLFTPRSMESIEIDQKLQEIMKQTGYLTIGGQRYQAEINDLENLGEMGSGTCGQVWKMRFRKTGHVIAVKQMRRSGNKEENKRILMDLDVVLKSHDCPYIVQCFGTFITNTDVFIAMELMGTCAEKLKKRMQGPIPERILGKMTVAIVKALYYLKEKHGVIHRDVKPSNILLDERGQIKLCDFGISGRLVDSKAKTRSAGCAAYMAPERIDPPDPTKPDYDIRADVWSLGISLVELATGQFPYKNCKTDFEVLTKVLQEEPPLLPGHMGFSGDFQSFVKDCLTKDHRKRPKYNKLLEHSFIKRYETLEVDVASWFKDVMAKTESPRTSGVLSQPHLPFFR

- dTm 33 (BMX): 7.1 °C
- dTm 33 (PHKG2): 6.2 °C
- dTm 33 (MAP2K7): 7.7 °C
Structure (SMILES): Cc1cccc(-c2ccc(-c3cc4cnc(Nc5ccc(F)c(CO)c5)nc4n(CCCCN)c3=O)c(Cl)c2)n1 [compound 33, 8-(4-Aminobutyl)-6-(2-chloro-4-(6-methylpyridin-2-yl)phenyl)-2-((4-fluoro-3-(hydroxymethyl)phenyl)amino)pyrido[2,3-d]pyrimidin-7(8H)-one]
- dTm 33 (Erk7): 1.6 °C

- dTm 34 (BMX): 4.1 °C
- dTm 34 (PHKG2): 3.5 °C
- dTm 34 (MAP2K7): 1.3 °C
Structure (SMILES): COc1ccc(O)c(Nc2ncc3cc(-c4ccc(-c5cccc(C)n5)cc4Cl)c(=O)n(CCCCN)c3n2)c1 [compound 34, 8-(4-Aminobutyl)-6-(2-chloro-4-(6-methylpyridin-2-yl)phenyl)-2-((2-hydroxy-5-methoxy-phenyl)amino)pyrido[2,3-d]pyrimidin-7(8H)-one]
- dTm 34 (Erk7): -0.4 °C

- dTm 35 (BMX): 4.4 °C
- dTm 35 (PHKG2): 8.8 °C
- dTm 35 (MAP2K7): 2.0 °C
Structure (SMILES): COc1cc(N2CCOCC2)ccc1Nc1ncc2cc(-c3ccc(-c4cccc(C)n4)cc3Cl)c(=O)n(CCCCN)c2n1 [compound 35, 8-(4-Aminobutyl)-6-(2-chloro-4-(6-methylpyridin-2-yl)phenyl)-2-((2-methoxy-4-morpholino-phenyl)amino)pyrido[2,3-d]pyrimidin-7(8H)-one]
- dTm 35 (Erk7): 1.1 °C

- dTm 36 (BMX): 3.3 °C
- dTm 36 (PHKG2): 8.0 °C
- dTm 36 (MAP2K7): 0.0 °C
Structure (SMILES): COc1cc(N2CCN(C)CC2)ccc1Nc1ncc2cc(-c3ccc(-c4cccc(C)n4)cc3Cl)c(=O)n(CCCCN)c2n1 [compound 36, 8-(4-Aminobutyl)-6-(2-chloro-4-(6-methylpyridin-2-yl)phenyl)-2-((2-methoxy-4-(4-methylpiperazin-1-yl)phenyl)amino)pyrido[2,3-d]pyrimidin-7(8H)-one]
- dTm 36 (Erk7): -0.5 °C

From paper doi:10.1101/2023.11.24.568596v1 (biorxiv, 2023)
